From ChEMBL document CHEMBL1759965, “Synthesis and pharmacological evaluation of bivalent antagonists of the nociceptin opioid receptor” (Eur J Med Chem, 2011)
Activity calls are given as the source filed them. The rule behind the calls is not given here.

Experiments:
[1] = target: Delta-type opioid receptor (Homo sapiens) (UniProt P41143); experiment: Displacement of [3H]-naltrindole from human delta opioid receptor expressed in human HEK293 cells after 2 hrs by scintillation counting; assay type: cell-based
Mu-type opioid receptor = Mu-type opioid receptor (Homo sapiens, UniProt P35372); experiment: Displacement of [3H]-naltrindole from human mu opioid receptor expressed in CHO cells after 2 hrs by scintillation counting; assay type: cell-based
Homo sapiens [2] = species on record: Homo sapiens; experiment: Selectivity ratio of IC50 for human kappa opioid receptor to IC50 for human NOP receptor
Homo sapiens [3] = species on record: Homo sapiens; experiment: Selectivity ratio of IC50 for human mu opioid receptor to IC50 for human NOP receptor
Nociceptin receptor [4] = target: T1, Nociceptin receptor (Homo sapiens, UniProt P41146); experiment: Antagonist activity at human NOP receptor expressed in human HEK293 cells assessed as inhibition of GTPgammaS binding in presence of 300 nM GDP relative to control; assay type: functional, cell-based
Nociceptin receptor [5] = target: T1, Nociceptin receptor; experiment: Displacement of [125I]Tyr14-nociceptin from human NOP receptor expressed in human HEK293 cells after 90 mins by scintillation counting
[6] = target: Kappa-type opioid receptor (Homo sapiens, UniProt P41145); experiment: Displacement of [3H]-diprenorphine from human kappa opioid receptor expressed in human HEK293 cells after 2 hrs by scintillation counting
Chain of Kappa-type opioid receptor (P41145 whole entry): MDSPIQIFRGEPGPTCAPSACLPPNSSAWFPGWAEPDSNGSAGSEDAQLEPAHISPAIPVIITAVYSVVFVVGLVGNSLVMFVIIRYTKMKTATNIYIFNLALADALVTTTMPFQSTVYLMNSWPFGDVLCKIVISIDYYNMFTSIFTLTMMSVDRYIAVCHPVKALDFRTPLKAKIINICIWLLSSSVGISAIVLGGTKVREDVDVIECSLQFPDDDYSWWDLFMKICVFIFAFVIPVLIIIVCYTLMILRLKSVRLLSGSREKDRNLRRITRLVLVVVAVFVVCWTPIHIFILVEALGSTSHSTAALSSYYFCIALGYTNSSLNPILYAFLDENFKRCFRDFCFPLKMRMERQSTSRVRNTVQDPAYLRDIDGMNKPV

Chain of Mu-type opioid receptor (P35372 whole entry): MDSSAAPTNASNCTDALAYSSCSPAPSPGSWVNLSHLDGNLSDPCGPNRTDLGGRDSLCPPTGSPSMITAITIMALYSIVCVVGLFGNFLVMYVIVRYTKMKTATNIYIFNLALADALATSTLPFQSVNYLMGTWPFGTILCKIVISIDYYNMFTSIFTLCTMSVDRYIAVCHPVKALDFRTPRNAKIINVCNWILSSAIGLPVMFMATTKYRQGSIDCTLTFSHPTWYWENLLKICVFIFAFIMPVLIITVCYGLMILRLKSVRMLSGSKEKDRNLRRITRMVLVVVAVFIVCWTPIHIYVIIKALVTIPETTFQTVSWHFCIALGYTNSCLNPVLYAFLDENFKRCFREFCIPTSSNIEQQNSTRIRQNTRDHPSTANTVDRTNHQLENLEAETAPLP
T1 sequence (P41146 whole entry): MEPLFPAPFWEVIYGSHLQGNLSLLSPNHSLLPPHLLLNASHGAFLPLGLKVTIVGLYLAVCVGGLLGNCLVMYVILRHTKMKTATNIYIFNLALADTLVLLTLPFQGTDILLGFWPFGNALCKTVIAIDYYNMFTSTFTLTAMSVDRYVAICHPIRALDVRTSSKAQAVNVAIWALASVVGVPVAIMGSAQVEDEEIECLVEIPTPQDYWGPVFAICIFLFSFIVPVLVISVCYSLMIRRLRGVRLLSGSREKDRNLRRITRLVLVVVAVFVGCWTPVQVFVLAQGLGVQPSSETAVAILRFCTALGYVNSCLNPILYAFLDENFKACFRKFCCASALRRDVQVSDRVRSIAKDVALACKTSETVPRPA
Chain of Delta-type opioid receptor (Homo sapiens) (P41143 whole entry): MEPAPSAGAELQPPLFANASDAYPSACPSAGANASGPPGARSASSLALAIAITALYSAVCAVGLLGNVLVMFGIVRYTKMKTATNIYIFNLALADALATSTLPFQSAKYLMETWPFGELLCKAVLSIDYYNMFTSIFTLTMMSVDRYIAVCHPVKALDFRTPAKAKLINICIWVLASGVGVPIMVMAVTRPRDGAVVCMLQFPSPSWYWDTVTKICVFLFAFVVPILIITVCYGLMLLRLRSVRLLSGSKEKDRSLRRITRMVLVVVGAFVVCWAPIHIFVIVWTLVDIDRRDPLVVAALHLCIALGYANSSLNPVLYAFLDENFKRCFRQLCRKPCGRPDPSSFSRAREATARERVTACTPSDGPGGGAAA

Compound | Activity [1] | IC50 (Mu-type opioid receptor) [nM] | Ratio IC50 (Homo sapiens [2]) | Ratio IC50 (Homo sapiens [3]) | Activity (Nociceptin receptor [4]) | IC50 (Nociceptin receptor [5]) [nM] | IC50 [6] [nM]
Cc1cc(N)c2cc(NC(=O)c3ccccc3COc3ccc(CNCCCCCCCCCN)cc3)ccc2n1 | inactive | 7070 | 40 | 46 | Active | 212 | 6180
Cc1cc(N)c2cc(NC(=O)c3ccccc3COc3ccc(CNCCCCCCCCCCNCc4ccc(OCc5ccccc5C(=O)Nc5ccc6nc(C)cc(N)c6c5)cc4)cc3)ccc2n1 | inactive | 1320 | 31 | 45 | Active | 32.7 | 900
Cc1cc(N)c2cc(NC(=O)c3ccccc3COc3ccc(CNCCCCN)cc3)ccc2n1 | inactive | 5330 | 7.2 | 9 | Active | 800 | 4260
Cc1cc(N)c2cc(NC(=O)c3ccccc3COc3ccc(CNCCCNCc4ccc(OCc5ccccc5C(=O)Nc5ccc6nc(C)cc(N)c6c5)cc4)cc3)ccc2n1 | inactive | 468 | 177 | 15 | Active | 76.5 | 5480
Cc1cc(N)c2cc(NC(=O)c3ccccc3COc3ccc(CNCCCN)cc3)ccc2n1 | inactive | 1400 | 14 | 12 | Active | 160 | 1650

Continued by falling IC50 (Mu-type opioid receptor), values first:

Activity [1] | IC50 (Mu-type opioid receptor) [nM] | Ratio IC50 (Homo sapiens [2]) | Ratio IC50 (Homo sapiens [3]) | Activity (Nociceptin receptor [4]) | IC50 (Nociceptin receptor [5]) [nM] | IC50 [6] [nM] | Compound
inactive | 9980 | 5.7 | 57 | Active | 246 | 998 | Cc1cc(N)c2cc(NC(=O)c3ccccc3COc3ccc(CNCCCCCCCN)cc3)ccc2n1
inactive | 5110 | 10 | 8.6 | Active | 1120 | 5920 | CCCCNCc1ccc(OCc2ccccc2C(=O)Nc2ccc3nc(C)cc(N)c3c2)cc1
inactive | 4880 | 18 | 41 | Active | 207 | 2150 | Cc1cc(N)c2cc(NC(=O)c3ccccc3COc3ccc(CNCCCCCN)cc3)ccc2n1
inactive | 4450 | 13 | 16 | Active | 732 | 3670 | CCCCCNCc1ccc(OCc2ccccc2C(=O)Nc2ccc3nc(C)cc(N)c3c2)cc1
inactive | 2510 | 28 | 46 | Active | 76.2 | 1500 | Cc1cc(N)c2cc(NC(=O)c3ccccc3COc3ccc(CNCCCCCNCc4ccc(OCc5ccccc5C(=O)Nc5ccc6nc(C)cc(N)c6c5)cc4)cc3)ccc2n1
inactive | 2170 | 13 | 11 | Active | 305 | 2560 | CCCCCCCCCNCc1ccc(OCc2ccccc2C(=O)Nc2ccc3nc(C)cc(N)c3c2)cc1
inactive | 1900 | 37 | 56 | Active | 31.6 | 1270 | Cc1cc(N)c2cc(NC(=O)c3ccccc3COc3ccc(CNCCCCCCCCNCc4ccc(OCc5ccccc5C(=O)Nc5ccc6nc(C)cc(N)c6c5)cc4)cc3)ccc2n1
inactive | 325 | 8.6 | 3.2 | Active | 144 | 872 | Cc1cc(N)c2cc(NC(=O)c3ccccc3COc3ccc(CNCCCCCCCCN)cc3)ccc2n1
